# Measurements taken from patent publication US7202085B2, “Control of gene expression in eukaryotic cells” (Calgene LLC, priority 1999, dated 2007).
# Where “and” joins values, the source holds several entries; their conditions need not be identical. Identical values can stand only once. Like-named read-outs stand apart in the source and are kept apart here.
# Tested on: tra box-GUS reporter
# Experimental: Plasmids for transfection were isolated and purified using Megaprep plasmid DNA isolation kit (Qiagen). Carrot protoplasts for transfections were prepared from carrot cell suspension culture and transfected with purified DNA as described (Ulmasov et al., Plant Cell 7:1611–1623, 1995). Briefly, 10 μg of the reporter plasmid and 5 μg of the effector plasmid were incubated with 10^6 protoplasts for five minutes at the room temperature in the presence of polyethylene glycol-calcium solution. After diluting approximately 10-fold with the culture medium, the protoplasts were incubated in the dark for 36 hours either in the presence or absence of the inducer 3-oxohexanoyl-homoserine lactone (OHHL, racemic mixture of the L- and D-isomers, purchased from Sigma Chemical Co., St Louis, Mo.). After incubation, protoplasts were collected by low-speed centrifugation, lysed and the level of GUS activity was measured using fluorometric GUS assay (Jefferson et al., EMBO J. 6:3901–3907, 1987).
# Ten μg of the reporter plasmid (pMON53031), and indicated amount of the 35S effector plasmid per reaction was used for transfection in triplicate. […] The “− inducer” and “+ inducer” columns are averages of the GUS activities.
# These constructs were tested for background GUS activity and TraR responsiveness in carrot protoplasts.
# [1] = Table 5 lane 3: traA1(3X), cl.35 alone (35S-CAT), 12.5 μM C8-AHL
# [2] = Table 5 lane 5: traA2(3X), cl.43 alone (35S-CAT), 12.5 μM C8-AHL
# [3] = Table 5 lane 7: traA3(3X), cl.4 alone (35S-CAT), 12.5 μM C8-AHL
# [4] = Table 5 lane 9: traA4(3X), cl.23 alone (35S-CAT), 12.5 μM C8-AHL
# [5] = Table 5 lane 11: traA5(3X), cl.2 alone (35S-CAT), 12.5 μM C8-AHL
# [6] = Table 5 lane 13: traA6(3X), cl.21 alone (35S-CAT), 12.5 μM C8-AHL
# [7] = Table 5 lane 15: traA7(3X), cl.15 alone (35S-CAT), 12.5 μM C8-AHL
# [8] = Table 5 lane 17: traA8(3X), cl.4 alone (35S-CAT), 12.5 μM C8-AHL
# [9] = Table 5 lane 19: traA9(3X), cl.8 alone (35S-CAT), 12.5 μM C8-AHL
# [10] = Table 5 lane 21: min-46GUS, 12.5 μM C8-AHL
# [11] = Table 6 lane 1: Tra box(3X), cl.5 + CAT, 12.5 μM C8-AHL
# [12] = Table 6 lane 3: TraA1(3X), cl.35 + CAT, 12.5 μM C8-AHL
# [13] = Table 6 lane 5: TraA2(3X), cl.43 + CAT, 12.5 μM C8-AHL
# [14] = Table 6 lane 7: TraA3(3X), cl.4 + CAT, 12.5 μM C8-AHL
# [15] = Table 6 lane 9: TraA4(3X), cl.23 + CAT, 12.5 μM C8-AHL
# [16] = Table 6 lane 11: TraA5(3X), cl.2 + CAT, 12.5 μM C8-AHL
# [17] = Table 6 lane 15: TraA7(3X), cl.15 + CAT, 12.5 μM C8-AHL
# [18] = Table 6 lane 17: TraA8(3X), cl.4 + CAT, 12.5 μM C8-AHL
# [19] = Table 6 lane 19: TraA9(3X), cl.8 + CAT, 12.5 μM C8-AHL
# [20] = Table 6 lane 21: TraA10(3X), cl.17 + CAT, 12.5 μM C8-AHL
# [21] = Table 6 lane 23: TraA-1(3X), cl.14 + CAT, 12.5 μM C8-AHL
# [22] = Table 6 lane 25: min35S-46-GUS, 12.5 μM C8-AHL
# [23] = Table 7 lane 1: S2-46GUS, 12.5 μM C8-AHL
# [24] = Table 7 lane 2: TraA8(4X), cl.16 + CAT, 12.5 μM C8-AHL
# [25] = Table 7 lane 4: TraA8(3X), cl.4(60 μg) + CAT, 12.5 μM C8-AHL
# [26] = Table 7 lane 6: TraA8(3X), cl.4(60 μg) +TraM, 12.5 μM C8-AHL
# [27] = Table 7 lane 7: TraA8(3X), cl.4(60 μg) +TraS, 12.5 μM C8-AHL
# [28] = Table 8 lane 2: TraA8(4X) +CAT, 25 μM C8-HSL
structure (smiles),measurement,setting,value
"CCCCCC(=O)CC(=O)N[C@H]1CCOC1=O [C8-HSL, 3-oxooctanoyl-L-homoserine lactone]",+inducer (average GUS activity),"Table 5 lane 1: tra box (6X), cl.7 alone (35S-CAT), 12.5 μM C8-AHL",620.2
same,"4, 5, 6 (replicate GUS activities, +inducer)",[1],110.8 and 118.5 and 145.2
same,+inducer (average GUS activity),[1],124.8
same,"4, 5, 6 (replicate GUS activities, +inducer)",[2],240.6 and 221.1 and 229.7
same,+inducer (average GUS activity),[2],230.5
same,"4, 5, 6 (replicate GUS activities, +inducer)",[3],89.3 and 94.4 and 103.2
same,+inducer (average GUS activity),[3],95.6
same,"4, 5, 6 (replicate GUS activities, +inducer)",[4],177.7 and 196.0 and 195.0
same,+inducer (average GUS activity),[4],189.6
same,"4, 5, 6 (replicate GUS activities, +inducer)",[5],20.6 and 16.2 and 13.1
same,+inducer (average GUS activity),[5],16.6
same,"4, 5, 6 (replicate GUS activities, +inducer)",[6],73.6 and 64.2 and 76.1
same,+inducer (average GUS activity),[6],71.3
same,"4, 5, 6 (replicate GUS activities, +inducer)",[7],215.1 and 200.0 and 238.6
same,+inducer (average GUS activity),[7],217.9
same,"4, 5, 6 (replicate GUS activities, +inducer)",[8],36.3 and 43.3 and 39.8
same,+inducer (average GUS activity),[8],39.8
same,"4, 5, 6 (replicate GUS activities, +inducer)",[9],32.4 and 35.6 and 36.2
same,+inducer (average GUS activity),[9],34.7
same,"4, 5, 6 (replicate GUS activities, +inducer)",[10],145.4 and 124.2 and 116.0
same,+inducer (average GUS activity),[10],128.5
same,"4, 5, 6 (replicate GUS activities, +inducer)",[11],264.6 and 251.9 and 230.9
same,+inducer (average GUS activity),[11],249.1
same,"4, 5, 6 (replicate GUS activities, +inducer)",[12],70.7 and 54.2 and 42.8
same,+inducer (average GUS activity),[12],55.9
same,"4, 5, 6 (replicate GUS activities, +inducer)",[13],125.2 and 103.0 and 110.2
same,+inducer (average GUS activity),[13],112.8
same,"4, 5, 6 (replicate GUS activities, +inducer)",[14],59.2 and 62.8 and 46.4
same,+inducer (average GUS activity),[14],56.1
same,"4, 5, 6 (replicate GUS activities, +inducer)",[15],87.9 and 86.4 and 85.9
same,+inducer (average GUS activity),[15],86.7
same,"4, 5, 6 (replicate GUS activities, +inducer)",[16],72.5 and 68.2 and 90.9
same,+inducer (average GUS activity),[16],77.2
same,+inducer (average GUS activity),"Table 6 lane 13: TraA6(3X), cl.21 + CAT, 12.5 μM C8-AHL",3.9
same,"4, 5, 6 (replicate GUS activities, +inducer)",[17],241.3 and 197.1 and 268.5
same,+inducer (average GUS activity),[17],235.6
same,"4, 5, 6 (replicate GUS activities, +inducer)",[18],121.2 and 148.8 and 115.9
same,+inducer (average GUS activity),[18],128.7
same,"4, 5, 6 (replicate GUS activities, +inducer)",[19],97.4 and 96.7 and 89.6
same,+inducer (average GUS activity),[19],94.6
same,"4, 5, 6 (replicate GUS activities, +inducer)",[20],47.1 and 44.2 and 44.1
same,+inducer (average GUS activity),[20],45.1
same,"4, 5, 6 (replicate GUS activities, +inducer)",[21],19.7 and 23.6 and 17.0
same,+inducer (average GUS activity),[21],20.1
same,"4, 5, 6 (replicate GUS activities, +inducer)",[22],39.6 and 32.1 and 44.5
same,+inducer (average GUS activity),[22],38.7
same,"4, 5, 6 (replicate GUS activities, +inducer)",[23],27.2 and 22.7 and 17.4
same,+inducer (average GUS activity),[23],22.4
same,"4, 5, 6 (replicate GUS activities, +inducer)",[24],20.3 and 25.1 and 18.7
same,+inducer (average GUS activity),[24],21.3
same,"4, 5, 6 (replicate GUS activities, +inducer)",[25],76.6 and 75.1 and 58.1
same,+inducer (average GUS activity),[25],70.0
same,"4, 5, 6 (replicate GUS activities, +inducer)",[26],105.0 and 102.1 and 86.8
same,+inducer (average GUS activity),[26],98.0
same,"4, 5, 6 (replicate GUS activities, +inducer)",[27],143.6 and 128.8 and 134.8
same,+inducer (average GUS activity),[27],135.7
same,"4, 5, 6 (replicate GUS activities, +inducer)",[28],1101.9 and 791.0 and 1071.3
same,+inducer (average GUS activity),[28],988.1
